Data from article PMC6680430, “Quantitative Prediction of Human Pharmacokinetics and Pharmacodynamics of CKD519, a Potent Inhibitor of Cholesteryl Ester Transfer Protein (CETP)” (Pharmaceutics, 2019).

Key:
[1] = animal full PK study in rats (NCA and PK model); type: in vivo; conditions: rat; for Tmax: median (range)
Experimental: (§1) Animal PK data for analysis were collected from preclinical studies performed at ChongKunDang laboratory. All animal experiments were performed with relevant guidelines and regulations, and the protocol was approved by the Institutional Animal Care and Use Committee (IACUC) of ChongKunDang (Approval number: S-13-015). A single dose of CKD519 was administered either orally or via intravenous infusion to hamsters (intravenous dose of 0.5 mg/kg, oral dose of 3, 15, or 45 mg/kg, n = 30); rats (intravenous dose of 0.5 mg/kg, oral dose of 5, 15, or 45 mg/kg, n = 20); and monkeys (intravenous dose of 0.1 mg/kg, oral dose of 1, 5, or 30 mg/kg, n = 16). The identical solution was administered to all animal species in the fasted state. Plasma CKD519 concentration was measured before and at 0.083, 0.25, 0.5, 1, 2, 4, 8, and 24 h after administration in hamsters and rats, and before and at 0.083, 0.25, 0.5, 1, 2, 4, 6, 8, 12, 24, 48, and 72 h after administration in monkeys. Two hamsters given identical doses were sampled in a rotating manner.
(§2) The plasma samples were stored at −70 °C before the analysis and were thawed at room temperature. […] A sensitive, specific, and validated liquid chromatography coupled with a tandem mass spectrometer (HPLC-MS/MS) assay was used for the determination of CKD519 concentration in animal plasma samples. A structural analogue of CKD519 was used as the internal standard. The validated working range was from 2 ng/mL (the lower limit of quantification, LLOQ) to 20,000 ng/mL. Quality control (QC) samples were analyzed together with the study samples. Intra-day and inter-day precision and accuracy results were within the acceptance criteria based on the Ministry of Food and Drug Safety (MFDS) guidelines. An exploratory data analysis was performed through non-compartmental analysis (NCA) using the NonCompart package (developed by Bae, version 0.4.4) in R (version 3.5.1, The R Foundation, Vienna, Austria).
(§3) Using the PK data from each species, nonlinear mixed-effect modeling was conducted using NONMEM (version 7.4, Icon Development Solutions, Ellicott City, MD, USA) reflecting the clues from NCA. The first-order conditional estimation method with interaction (FOCE-I) was used whenever applicable. The adequacy of the model was checked using changes in the objective function value (OFV), visual inspection of various diagnostic plots (goodness-of-fit (GOF) plot), and methods of visual predictive check (VPC) and bootstrap were used for the diagnostics on the model stability and parameter reliability. The significance of model improvement was evaluated using a likelihood-ratio test (LRT). In the nested models, the result was considered statistically significant if the OFV decreased more than 3.84 (p-value < 0.05, degree of freedom (df) = 1) and 5.99 (p-value < 0.05, df = 2). The degree of freedom is defined as the gap of the numbers of parameters of the two subsequent models that are being compared. In the case of non-nested models, the Akaike information criteria (AIC) value was used to select the model that best described the data. R (version 3.5.1., R Foundation for Statistical Computing, Vienna, Austria) was used for data preparation, NCA, graphical analysis, model diagnostics, and statistical summaries.
(§4) Initially, a two-compartment model with first-order absorption was developed to describe the biphasic curve, and several absorption structures (e.g., zero-order with absorption lag time, Weibull-type absorption) were applied to the base model if needed. The change in absolute bioavailability (F) by dose levels was also considered. […]

[2] = animal full PK study in monkeys (NCA and PK model); type: in vivo, Cynomolgus monkey; conditions: monkey; for Tmax: median (range)
Experimental: as §1, §2, §3, §4

[3] = target: T1, cholesteryl ester transfer protein (CETP) (Homo sapiens, UniProt P11597); assay: in vitro potency, CETP inhibition (in-house data); conditions: read-out: IC50 (in vitro potency)
T1 sequence (P11597 18-493): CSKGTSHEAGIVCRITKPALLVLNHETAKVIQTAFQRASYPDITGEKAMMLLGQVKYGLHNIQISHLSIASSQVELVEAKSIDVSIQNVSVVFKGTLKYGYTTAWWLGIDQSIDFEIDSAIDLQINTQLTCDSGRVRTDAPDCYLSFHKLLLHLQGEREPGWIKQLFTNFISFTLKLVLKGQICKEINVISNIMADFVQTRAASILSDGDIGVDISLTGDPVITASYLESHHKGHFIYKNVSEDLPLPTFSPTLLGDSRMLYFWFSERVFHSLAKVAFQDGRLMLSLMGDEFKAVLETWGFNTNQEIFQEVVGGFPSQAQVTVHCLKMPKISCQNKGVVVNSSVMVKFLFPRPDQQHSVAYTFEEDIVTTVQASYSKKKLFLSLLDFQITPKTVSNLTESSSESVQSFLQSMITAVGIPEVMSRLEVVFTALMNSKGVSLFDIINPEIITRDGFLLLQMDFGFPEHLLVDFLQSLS

[4] = PK model, final estimate (%RSE)
[5] = intravenous 0.5 mg/kg, NCA, mean ± SD
[6] = two-compartment PK model, final estimate (%RSE)
[7] = intravenous 0.1 mg/kg, NCA, mean ± SD

SMILES: COc1cc(F)c(C(C)C)cc1C1=C(CN2C(=O)O[C@H](c3cc(C(F)(F)F)cc(C(F)(F)F)c3)[C@@H]2C)CC(C)(C)CC1 [CKD519]
- α (scale parameter of Weibull absorption) [1, 4]: 3.86 (3.94%)
- β (shape parameter of Weibull absorption) [1, 4]: 2.59 (4.59%)
- AUClast [1, 5]: 3940 ± 585 ng·h/mL
- V/F * (V for intravenous) [1, 5]: 494 ± 126 mL
- ke [1, 5]: 0.0677 ± 0.0214 h⁻¹
- t1/2 [1, 5]: 12.0 ± 2.98 h
- Tmax ([1]; intravenous 0.5 mg/kg, NCA): 0.083 (0.083–0.083) h
- AUClast ([1]; oral 5 mg/kg, NCA, mean ± SD): 6640 ± 932 ng·h/mL
- CL/F ([1]; oral 5 mg/kg, NCA, mean ± SD): 188 ± 28.6 mL/h
- Cmax ([1]; oral 5 mg/kg, NCA, mean ± SD): 893 ± 231 ng/mL
- V/F ([1]; oral 5 mg/kg, NCA, mean ± SD): 2860 ± 1930 mL
- ke ([1]; oral 5 mg/kg, NCA, mean ± SD): 0.0784 ± 0.0245 h⁻¹
- t1/2 ([1]; oral 5 mg/kg, NCA, mean ± SD): 10.0 ± 4.78 h
- Tmax ([1]; oral 5 mg/kg, NCA): 3 (3–4) h
- AUClast ([1]; oral 15 mg/kg, NCA, mean ± SD): 11600 ± 3240 ng·h/mL
- CL/F ([1]; oral 15 mg/kg, NCA, mean ± SD): 323 ± 82.8 mL/h
- Cmax ([1]; oral 15 mg/kg, NCA, mean ± SD): 2040 ± 448 ng/mL
- V/F ([1]; oral 15 mg/kg, NCA, mean ± SD): 4770 ± 1740 mL
- ke ([1]; oral 15 mg/kg, NCA, mean ± SD): 0.0701 ± 0.0107 h⁻¹
- t1/2 ([1]; oral 15 mg/kg, NCA, mean ± SD): 10.1 ± 1.82 h
- Tmax ([1]; oral 15 mg/kg, NCA): 2 (2–4) h
- AUClast ([1]; oral 45 mg/kg, NCA, mean ± SD): 12700 ± 1900 ng·h/mL
- CL/F ([1]; oral 45 mg/kg, NCA, mean ± SD): 887 ± 140 mL/h
- V/F ([1]; oral 45 mg/kg, NCA, mean ± SD): 10100 ± 1380 mL
- ke ([1]; oral 45 mg/kg, NCA, mean ± SD): 0.0876 ± 0.00791 h⁻¹
- t1/2 ([1]; oral 45 mg/kg, NCA, mean ± SD): 7.97 ± 0.782 h
- Tmax ([1]; oral 45 mg/kg, NCA): 3 (2–5) h
- CL [1, 6]: 0.0326 (5.58%) L/h
- Q [1, 6]: 0.0404 (12.0%) L/h
- Vc [1, 6]: 0.0287 (6.41%) L
- Vp [1, 6]: 0.285 (8.21%) L
- α (scale parameter of Weibull absorption) [2, 4]: 5.44 (11.8%)
- β (shape parameter of Weibull absorption) [2, 4]: 3.54 (6.50%)
- AUClast [2, 7]: 5150 ± 1530 ng·h/mL
- V/F * (V for intravenous) [2, 7]: 3500 ± 1380 mL
- ke [2, 7]: 0.0105 ± 0.00836 h⁻¹
- t1/2 [2, 7]: 104 ± 80.0 h
- Tmax ([2]; intravenous 0.1 mg/kg, NCA): 0.1665 (0.083–0.25) h
- AUClast ([2]; oral 1 mg/kg, NCA, mean ± SD): 8940 ± 954 ng·h/mL
- CL/F ([2]; oral 1 mg/kg, NCA, mean ± SD): 230 ± 64.6 mL/h
- Cmax ([2]; oral 1 mg/kg, NCA, mean ± SD): 752 ± 148 ng/mL
- V/F ([2]; oral 1 mg/kg, NCA, mean ± SD): 17600 ± 4000 mL
- ke ([2]; oral 1 mg/kg, NCA, mean ± SD): 0.0140 ± 0.0057 h⁻¹
- t1/2 ([2]; oral 1 mg/kg, NCA, mean ± SD): 59.9 ± 35.5 h
- Tmax ([2]; oral 1 mg/kg, NCA): 5.5 (5–6) h
- AUClast ([2]; oral 5 mg/kg, NCA, mean ± SD): 29500 ± 4840 ng·h/mL
- CL/F ([2]; oral 5 mg/kg, NCA, mean ± SD): 309 ± 77.3 mL/h
- Cmax ([2]; oral 5 mg/kg, NCA, mean ± SD): 4700 ± 1100 ng/mL
- V/F ([2]; oral 5 mg/kg, NCA, mean ± SD): 50500 ± 16900 mL
- ke ([2]; oral 5 mg/kg, NCA, mean ± SD): 0.00707 ± 0.00412 h⁻¹
- t1/2 ([2]; oral 5 mg/kg, NCA, mean ± SD): 125 ± 64.6 h
- Tmax ([2]; oral 5 mg/kg, NCA): 7 (6–8) h
- AUClast ([2]; oral 30 mg/kg, NCA, mean ± SD): 79100 ± 15600 ng·h/mL
- CL/F ([2]; oral 30 mg/kg, NCA, mean ± SD): 999 ± 123 mL/h
- Cmax ([2]; oral 30 mg/kg, NCA, mean ± SD): 10200 ± 2390 ng/mL
- V/F ([2]; oral 30 mg/kg, NCA, mean ± SD): 67800 ± 44900 mL
- ke ([2]; oral 30 mg/kg, NCA, mean ± SD): 0.0194 ± 0.0104 h⁻¹
- t1/2 ([2]; oral 30 mg/kg, NCA, mean ± SD): 46.3 ± 26.8 h
- Tmax ([2]; oral 30 mg/kg, NCA): 8 (8–8) h
- CL [2, 6]: 0.0344 (24.0%) L/h
- Q [2, 6]: 0.0895 (49.9%) L/h
- Vc [2, 6]: 0.383 (74.7%) L
- Vp [2, 6]: 3.40 (51.5%) L
- IC50 [3]: 2.3 nM
